# Experiments:
# [1] = system: HL-60(TB); test: Growth inhibition of human HL-60(TB) cells incubated for 48 hrs by sulforhodamine B assay; format: functional, cell-based; conditions: HL-60, 48 h
# [2] = system: SK-MEL-2; test: Growth inhibition of human SK-MEL-2 cells assessed as cell growth at 10 uM incubated for 48 hrs by sulforhodamine B assay relative to control; format: functional; conditions: SK-MEL-2, 48 h, read-out: Activity
# [3] = system: SK-MEL-2; test: Growth inhibition of human SK-MEL-2 cells incubated for 48 hrs by sulforhodamine B assay; format: functional, cell-based; conditions: SK-MEL-2, 48 h
# [4] = system: HOP-62; test: Growth inhibition of human HOP62 cells assessed as cell growth at 1 uM incubated for 48 hrs by sulforhodamine B assay relative to control; format: functional; conditions: HOP-62, 48 h, read-out: Activity
# [5] = system: NCI-H226; test: Growth inhibition of human NCI-H226 cells incubated for 48 hrs by sulforhodamine B assay; format: functional, cell-based; conditions: NCI-H226, 48 h
# [6] = system: RPMI-8226; test: Growth inhibition of human RPMI8226 cells assessed as cell growth at 1 uM incubated for 48 hrs by sulforhodamine B assay relative to control; format: functional; conditions: RPMI-8226, 48 h, read-out: Activity
# [7] = system: RXF 393; test: Growth inhibition of human RXF393 cells assessed as cell growth at 1 uM incubated for 48 hrs by sulforhodamine B assay relative to control; format: functional; conditions: RXF 393, 48 h, read-out: Activity
# [8] = system: SK-OV-3; test: Growth inhibition of human SKOV3 cells assessed as cell growth at 1 uM incubated for 48 hrs by sulforhodamine B assay relative to control; format: functional; conditions: SK-OV-3, 48 h, read-out: Activity
# [9] = system: NCI-H23; test: Growth inhibition of human NCI-H23 cells assessed as cell growth at 0.1 uM incubated for 48 hrs by sulforhodamine B assay relative to control; format: functional; conditions: NCI-H23, 48 h, read-out: Activity
# [10] = system: OVCAR-8; test: Growth inhibition of human OVCAR8 cells assessed as cell growth at 1 uM incubated for 48 hrs by sulforhodamine B assay relative to control; format: functional; conditions: OVCAR-8, 48 h, read-out: Activity
# [11] = system: CCRF-CEM; test: Growth inhibition of human CCRF-CEM cells assessed as cell growth at 1 uM incubated for 48 hrs by sulforhodamine B assay relative to control; format: functional; conditions: read-out: Activity
# [12] = system: MOLT-4; test: Growth inhibition of human MOLT4 cells incubated for 48 hrs by sulforhodamine B assay; format: functional, cell-based; conditions: MOLT-4, 48 h
# [13] = system: Hs-578T; test: Growth inhibition of human Hs578T cells assessed as cell growth at 100 uM incubated for 48 hrs by sulforhodamine B assay relative to control; format: functional; conditions: read-out: Activity
# [14] = system: Hs-578T; test: Growth inhibition of human Hs578T cells incubated for 48 hrs by sulforhodamine B assay; format: functional, cell-based
# [15] = system: SF-268; test: Growth inhibition of human SF268 cells assessed as cell growth at 1 uM incubated for 48 hrs by sulforhodamine B assay relative to control; format: functional; conditions: SF-268, 48 h, read-out: Activity
# [16] = system: SNB-75; test: Growth inhibition of human SNB75 cells assessed as cell growth at 0.01 uM incubated for 48 hrs by sulforhodamine B assay relative to control; format: functional; conditions: SNB-75, 48 h, read-out: Activity
# [17] = system: MDA-MB-435; test: Growth inhibition of human MDA-MB-435 cells incubated for 48 hrs by sulforhodamine B assay; format: functional, cell-based; conditions: MDA-MB-435, 48 h
# [18] = system: UACC-257; test: Growth inhibition of human UACC257 cells assessed as cell growth at 1 uM incubated for 48 hrs by sulforhodamine B assay relative to control; format: functional; conditions: UACC-257, 48 h, read-out: Activity
# [19] = system: COLO 205; test: Growth inhibition of human COLO205 cells assessed as cell growth at 0.01 uM incubated for 48 hrs by sulforhodamine B assay relative to control; format: functional; conditions: COLO 205, 48 h, read-out: Activity
# [20] = system: U-251; test: Growth inhibition of human U251 cells assessed as cell growth at 0.01 uM incubated for 48 hrs by sulforhodamine B assay relative to control; format: functional; conditions: U-251, 48 h, read-out: Activity
# [21] = system: K562; test: Growth inhibition of human K562 cells assessed as cell growth at 0.1 uM incubated for 48 hrs by sulforhodamine B assay relative to control; format: functional; conditions: K562, 48 h, read-out: Activity
# [22] = system: SNB-19; test: Growth inhibition of human SNB19 cells assessed as cell growth at 100 uM incubated for 48 hrs by sulforhodamine B assay relative to control; format: functional; conditions: SNB-19, 48 h, read-out: Activity
# [23] = system: Hs-578T; test: Growth inhibition of human Hs578T cells assessed as cell growth at 0.01 uM incubated for 48 hrs by sulforhodamine B assay relative to control; format: functional; conditions: read-out: Activity
# [24] = system: A549; test: Growth inhibition of human A549/ATCC cells assessed as cell growth at 0.1 uM incubated for 48 hrs by sulforhodamine B assay relative to control; format: functional; conditions: A549, 48 h, read-out: Activity
# [25] = system: HT-29; test: Growth inhibition of human HT-29 cells incubated for 48 hrs by sulforhodamine B assay; format: functional, cell-based; conditions: HT-29, 48 h
# [26] = system: SF-268; test: Growth inhibition of human SF268 cells incubated for 48 hrs by sulforhodamine B assay; format: functional, cell-based; conditions: SF-268, 48 h
# [27] = system: A498; test: Growth inhibition of human A498 cells assessed as cell growth at 1 uM incubated for 48 hrs by sulforhodamine B assay relative to control; format: functional; conditions: A498, 48 h, read-out: Activity
# [28] = system: A549; test: Growth inhibition of human A549/ATCC cells assessed as cell growth at 100 uM incubated for 48 hrs by sulforhodamine B assay relative to control; format: functional; conditions: A549, 48 h, read-out: Activity
# [29] = read-out: LC50 (the source's name)
# [30] = read-out: pLC50 (the source's name) (converted)
compound,measurement,setting,value
O=C(Nc1cccc(-n2cc(-c3ccncc3)c(-c3cc(O)cc(Cl)c3)n2)c1)Nc1ccc(Cl)c(C(F)(F)F)c1,GI50,[1]; read-out: GI50,2.56 µM
same,LC50,[1]; read-out: LC50,> 100 µM
same,TGI,[1]; read-out: TGI,66.2 µM
same,GI50,[1]; read-out: pGI50 (converted),2.88 µM
same,LC50,[1]; read-out: pLC50 (converted),> 100 µM
same,TGI,[1]; read-out: pTGI (converted),6.61 µM
same,growth at 10 µM,[2],-38%
same,GI50,[3]; read-out: GI50,2.2 µM
same,CC50,[3]; [29],94.2 µM
same,TGI,[3]; read-out: TGI,45.5 µM
same,GI50,[3]; read-out: pGI50 (converted),2.24 µM
same,CC50,[3]; [30],9.33 µM
same,TGI,[3]; read-out: pTGI (converted),4.57 µM
same,growth at 1 µM,[4],96%
same,GI50,[5]; read-out: GI50,2.47 µM
same,LC50,[5]; read-out: LC50,> 100 µM
same,TGI,[5]; read-out: TGI,89.6 µM
same,GI50,[5]; read-out: pGI50 (converted),2.45 µM
same,LC50,[5]; read-out: pLC50 (converted),> 100 µM
same,TGI,[5]; read-out: pTGI (converted),8.91 µM
same,growth at 1 µM,[6],88%
same,growth at 1 µM,[7],58%
same,growth at 1 µM,[8],107%
same,growth at 0.1 µM,[9],91%
same,growth at 1 µM,[10],99%
same,growth at 1 µM,[11],92%
same,GI50,[12]; read-out: GI50,1.99 µM
same,CC50,[12]; [29],> 100 µM
same,TGI,[12]; read-out: TGI,58.1 µM
same,GI50,[12]; read-out: pGI50 (converted),2 µM
same,CC50,[12]; [30],> 100 µM
same,TGI,[12]; read-out: pTGI (converted),5.75 µM
same,growth at 100 µM,[13],1%
same,GI50,[14]; read-out: GI50,3.2 µM
same,CC50,[14]; [29],> 100 µM
same,TGI,[14]; read-out: TGI,> 100 µM
same,GI50,[14]; read-out: pGI50 (converted),3.31 µM
same,CC50,[14]; [30],> 100 µM
same,TGI,[14]; read-out: pTGI (converted),> 100 µM
same,growth at 1 µM,[15],92%
same,growth at 0.01 µM,[16],53%
same,GI50,[17]; read-out: GI50,1.73 µM
same,LC50,[17]; read-out: LC50,55.2 µM
same,TGI,[17]; read-out: TGI,30 µM
same,GI50,[17]; read-out: pGI50 (converted),1.78 µM
same,LC50,[17]; read-out: pLC50 (converted),8.51 µM
same,TGI,[17]; read-out: pTGI (converted),3.89 µM
same,growth at 1 µM,[18],58%
same,growth at 0.01 µM,[19],102%
same,growth at 0.01 µM,[20],97%
same,growth at 0.1 µM,[21],94%
same,growth at 100 µM,[22],-33%
same,growth at 0.01 µM,[23],95%
same,growth at 0.1 µM,[24],100%
same,GI50,[25]; read-out: GI50,2.12 µM
same,CC50,[25]; [29],95.9 µM
same,TGI,[25]; read-out: TGI,45.7 µM
same,GI50,[25]; read-out: pGI50 (converted),2.14 µM
same,CC50,[25]; [30],10 µM
same,TGI,[25]; read-out: pTGI (converted),4.57 µM
same,GI50,[26]; read-out: GI50,3.1 µM
same,CC50,[26]; [29],> 100 µM
same,TGI,[26]; read-out: TGI,18 µM
same,GI50,[26]; read-out: pGI50 (converted),3.09 µM
same,CC50,[26]; [30],> 100 µM
same,TGI,[26]; read-out: pTGI (converted),15.8 µM
same,growth at 1 µM,[27],92%
same,growth at 100 µM,[28],-45%
